What was measured:
NCK2424 (ΔLBA0726) = experiment: Phenotypic growth analysis of deletion mutant (phospho-β-glucosidase); type: cell-based, Lactobacillus acidophilus; details: compared with background Δupp strain
Experimental: (§1) Phenotypic growth assays were performed using 1% (v/v) overnight cultures of L. acidophilus strains (Table 2) and other Lactobacillus species (Table 3) grown on SDM supplemented with 1% (w/v) glucose to inoculate 200 μL of SDM supplemented with 1% (w/v) of the examined carbohydrate (0.5% in the case of esculin) in 96-well microplate wells (Corning Costar, Corning, N.Y., USA) in duplicate or triplicate wells, respectively. The microplates were sealed with clear adhesive film, incubated at 37° C. in a Fluostar Optima microplate reader (BMG Labtech, Cary, N.C., USA), and the cell optical density (OD600) was monitored for 30 hours.
Construction of gene deletion mutants. The L. acidophilus NCFM genes LBA0225 and LBA0726, both encoding P-Bgl of glycoside hydrolase family 1 (GH1) enzymes in addition to the LBA0227 and LBA0725 genes encoding an EIIC and an EIICBA components of two PTS systems, respectively, were deleted using the upp-based counterselectable gene replacement system. Briefly, in-frame deletions were constructed by amplifying 650-750 bp of the up- and downstream flanking regions of the deletion targets with two primer pairs (e.g., LBA0225A/LBA0225B and LBA0225C/LBA0225D; Table 4). The resulting purified products were joined by splicing using overlap extension PCR (SOE-PCR63) and amplified to establish the deletion alleles. The SOE-PCR products, that include flanking restriction enzyme sites, were cloned within the BamHI and SacI/EcoRI sites of the pTRK935 integration vector and transformed into E. coli EC101. […]
(§2) To establish the functional significance of these two loci, single deletions of each PTS EII and P-Bgl gene, and a double deletion of both P-Bgl genes were constructed using the upp-based counter-selectable gene replacement system (Table 2) and the growth phenotypes of the mutant strains were analyzed (FIG. 3). […]

[1] = system: NCK2426 (ΔLBA0225ΔLBA0726); experiment: Phenotypic growth analysis of double phospho-β-glucosidase mutant; type: cell-based, Lactobacillus acidophilus; details: compared with background Δupp strain
Experimental: as §1
Construction of gene deletion mutants. The L. acidophilus NCFM genes LBA0225 and LBA0726, both encoding P-Bgl of glycoside hydrolase family 1 (GH1) enzymes in addition to the LBA0227 and LBA0725 genes encoding an EIIC and an EIICBA components of two PTS systems, respectively, were deleted using the upp-based counterselectable gene replacement system. […]
as §2

Question: How did the “growth of the ΔLBA0726 mutant (P-Bgl)” value (NCK2424 (ΔLBA0726)) turn out when `N#C[C@H](O[C@@H]1O[C@H](CO[C@@H]2O[C@H](CO)[C@@H](O)[C@H](O)[C@H]2O)[C@@H](O)[C@H](O)[C@H]1O)c1ccccc1` [Amygdalin] was run?
Answer: The value was “severe reduction in growth”.

Question: And the “growth of the double P-Bgl mutant (LBA0225/LBA0726)” value [1]?
Answer: Its value is “abolished”.

— patent US20200222474A1, “COMPOSITIONS AND METHODS FOR INCREASING PHYTOCHEMICAL BIOAVAILABLITY AND BIOACTIVITY” (North Carolina State University, priority 2017, published 2020)
